These results are taken from patent publication US20260216196A1, “IMIDAZO[1,2-A]PYRIDINE AND IMIDAZO[1,2-A]PYRAZINE DERIVATIVES AS MLLT1 AND MLLT3 INHIBITORS” (DARK BLUE THERAPEUTICS LTD., priority 2022, published 2026).

Structures can show the parent of a compound that is named as a salt. Where only a bound is given, the exact number is not on record here.

One test concerns the target MLLT3 (Homo sapiens, UniProt P42568). Kind of test: HTRF IC50 determination assay, MLLT3 / H3K9cro peptide displacement. The conditions noted are these: MLLT3 assay IC50 (nM), 6His tagged MLLT3, biotinylated H3K9cro peptide, compound 20 μM to 20 nM, 11 data points in duplicate. On the technique in general: In TR-FRET formats the signal depends on donor and acceptor labels being close together.

Another test has as its target MLLT1 (Homo sapiens, UniProt Q03111). Nature of the test: biochemical. The conditions noted are these: MLLT1 assay IC50 (nM), HTRF, 6His tagged MLLT1, biotinylated H3K9cro peptide; compound 20 μM to 20 nM, 11 data points in duplicate.

Sequence of MLLT3 (P42568 whole entry): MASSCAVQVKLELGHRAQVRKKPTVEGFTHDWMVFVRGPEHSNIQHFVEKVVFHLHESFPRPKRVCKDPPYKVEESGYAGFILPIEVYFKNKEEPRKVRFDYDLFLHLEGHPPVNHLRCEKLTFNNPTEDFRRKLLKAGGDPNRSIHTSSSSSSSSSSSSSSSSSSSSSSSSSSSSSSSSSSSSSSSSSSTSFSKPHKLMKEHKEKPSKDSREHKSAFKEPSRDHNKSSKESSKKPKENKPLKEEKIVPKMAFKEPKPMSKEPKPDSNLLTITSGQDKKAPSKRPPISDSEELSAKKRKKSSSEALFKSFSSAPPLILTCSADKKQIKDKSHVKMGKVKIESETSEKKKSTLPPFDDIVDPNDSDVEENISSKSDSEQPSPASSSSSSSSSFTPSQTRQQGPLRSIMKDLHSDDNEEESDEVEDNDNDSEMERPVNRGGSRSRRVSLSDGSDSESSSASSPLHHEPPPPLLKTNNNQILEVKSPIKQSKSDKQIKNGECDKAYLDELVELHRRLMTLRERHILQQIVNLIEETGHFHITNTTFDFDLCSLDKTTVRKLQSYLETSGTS
Sequence of MLLT1 (Q03111 whole entry): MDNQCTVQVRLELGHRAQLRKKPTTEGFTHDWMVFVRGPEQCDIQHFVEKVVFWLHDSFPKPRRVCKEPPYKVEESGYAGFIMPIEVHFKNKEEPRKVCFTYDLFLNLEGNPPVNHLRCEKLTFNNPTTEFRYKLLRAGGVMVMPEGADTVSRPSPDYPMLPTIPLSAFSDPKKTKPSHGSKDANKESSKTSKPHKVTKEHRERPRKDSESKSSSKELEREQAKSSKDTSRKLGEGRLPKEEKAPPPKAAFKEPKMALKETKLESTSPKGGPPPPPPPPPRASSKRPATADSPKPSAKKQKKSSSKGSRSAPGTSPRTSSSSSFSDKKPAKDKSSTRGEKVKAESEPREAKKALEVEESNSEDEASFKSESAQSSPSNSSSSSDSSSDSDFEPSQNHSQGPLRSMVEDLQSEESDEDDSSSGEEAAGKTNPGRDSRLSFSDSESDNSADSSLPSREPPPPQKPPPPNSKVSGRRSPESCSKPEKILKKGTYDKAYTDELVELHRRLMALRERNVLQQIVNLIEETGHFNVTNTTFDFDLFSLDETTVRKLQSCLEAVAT

In general, IC50 refers to the concentration needed to halve the response being measured. Low readings indicate higher potency, high ones lower potency. For the compound `COc1ccc2c(C(=O)Nc3ccc4nc(C5CCCN5C)cn4c3)c[nH]c2c1` (racemic) [Example 39, rac-6-methoxy-N-[2-(1-methylpyrrolidin-2-yl)imidazo[1,2-a]pyridin-6-yl]-1H-indole-3-carboxamide], the IC50 at MLLT3 is more than 20000 nM; at MLLT1 it was 1500 to 20000 nM.
For `CN1CCCC1c1cn2cc(NC(=O)c3ccc(-n4cccn4)cc3)ccc2n1` (racemic) [Example 40, rac-N-[2-(1-methylpyrrolidin-2-yl)imidazo[1,2-a]pyridin-6-yl]-4-(1H-pyrazol-1-yl)benzamide], the IC50 on MLLT3 was 1500 to 20000 nM; on MLLT1, 150 to 1500 nM.
The like results for `CN1CCCC1c1cn2cc(NC(=O)c3ccc(Cn4cccn4)cc3)ccc2n1` (racemic) [Example 42, rac-N-[2-(1-methylpyrrolidin-2-yl)imidazo[1,2-a]pyridin-6-yl]-4-[(1H-pyrazol-1-yl)methyl]benzamide] were, in that order, 1500 to 20000 nM and 150 to 1500 nM.
`CN1CCCC1c1cn2cc(NC(=O)c3cccc(-n4cccn4)c3)ccc2n1` (racemic) [Example 43, rac-N-[2-(1-methylpyrrolidin-2-yl)imidazo[1,2-a]pyridin-6-yl]-3-(1H-pyrazol-1-yl)benzamide]: the IC50 at MLLT3 was in the range of 1500 to 20000 nM; at MLLT1, 150 to 1500 nM.
For `Cc1c(C(=O)Nc2ccc3nc(C4CCCN4C)cn3c2)sc2nc[nH]c(=O)c12` (racemic) [Example 44, rac-5-methyl-N-[2-(1-methylpyrrolidin-2-yl)imidazo[1,2-a]pyridin-6-yl]-4-oxo-3H,4H-thieno[2,3-d]pyrimidine-6-carboxamide], the IC50 on MLLT3 and on MLLT1 was 1500 to 20000 nM throughout.
For `CN1CCCC1c1cn2cc(NC(=O)c3ccc4c(c3)nnn4C3CCCCC3)ccc2n1` (racemic) [Example 45, rac-1-cyclohexyl-N-[2-(1-methylpyrrolidin-2-yl)imidazo[1,2-a]pyridin-6-yl]-1H-1,2,3-benzotriazole-5-carboxamide], the IC50 at MLLT3 and on MLLT1 was 150 to 1500 nM throughout.
As to `CN1CCCC1c1cn2cc(NC(=O)c3cnc(-c4ccccc4)o3)ccc2n1` (racemic) [Example 46, rac-N-[2-(1-methylpyrrolidin-2-yl)imidazo[1,2-a]pyridin-6-yl]-2-phenyl-1,3-oxazole-5-carboxamide], the 50% inhibitory concentration (IC50) at MLLT3 and at MLLT1 was 1500 to 20000 nM each time.
Turning to `CN1CCCC1c1cn2cc(NC(=O)c3ccc4cncnc4c3)ccc2n1` (racemic) [Example 47, rac-N-[2-(1-methylpyrrolidin-2-yl)imidazo[1,2-a]pyridin-6-yl]quinazoline-7-carboxamide], the results for the 50% inhibitory concentration (IC50) at MLLT3 and on MLLT1 were 1500 to 20000 nM and 150 to 1500 nM, respectively.
The like results for `CN1CCCC1c1cn2cc(NC(=O)c3ccc4c(c3)c(C3CCCC3)nn4C)ccc2n1` (racemic) [Example 48, rac-3-cyclopentyl-1-methyl-N-[2-(1-methylpyrrolidin-2-yl)imidazo[1,2-a]pyridin-6-yl]-1H-indazole-5-carboxamide] were, in that order, 150 to 1500 nM and 150 to 1500 nM.
Take `COCCc1nn(C)c2ccc(C(=O)Nc3ccc4nc(C5CCCN5C)cn4c3)cc12` (racemic) [Example 49, rac-3-(2-methoxyethyl)-1-methyl-N-[2-(1-methylpyrrolidin-2-yl)imidazo[1,2-a]pyridin-6-yl]-1 H-indazole-5-carboxamide]: the 50% inhibitory concentration (IC50) on MLLT3 and against MLLT1 was 150 to 1500 nM in each case.
Take `Cc1noc2nc(C(=O)Nc3ccc4nc(C5CCCN5C)cn4c3)ccc12` (racemic) [Example 50, rac-3-methyl-N-[2-(1-methylpyrrolidin-2-yl)imidazo[1,2-a]pyridin-6-yl]-[1,2]oxazolo[5,4-b]pyridine-6-carboxamide]: the IC50 at MLLT3 and against MLLT1 was 1500 to 20000 nM each time.
In the case of `CN1CCCC1c1cn2cc(NC(=O)c3ccc(-c4ncon4)cc3)ccc2n1` (racemic) [Example 51, rac-N-[2-(1-methylpyrrolidin-2-yl)imidazo[1,2-a]pyridin-6-yl]-4-(1,2,4-oxadiazol-3-yl)benzamide], the IC50 at MLLT3 lay in the range of 1500 to 20000 nM; at MLLT1, 150 to 1500 nM.
The like results for `CN1CCCC1c1cn2cc(NC(=O)c3ccc4c(cnn4C)c3Cl)ccc2n1` (racemic) [Example 52, rac-4-chloro-1-methyl-N-[2-(1-methylpyrrolidin-2-yl)imidazo[1,2-a]pyridin-6-yl]-1H-indazole-5-carboxamide] were, in that order, more than 20000 nM and 1500 to 20000 nM.
On to `CN1CCCC1c1cn2cc(NC(=O)c3ccc4[nH]ccc4c3F)ccc2n1` (racemic) [Example 53, rac-4-fluoro-N-[2-(1-methylpyrrolidin-2-yl)imidazo[1,2-a]pyridin-6-yl]-1H-indole-5-carboxamide], for which the IC50 on MLLT3 and against MLLT1 was 150 to 1500 nM throughout.
In the case of `CN1CCCC1c1cn2cc(NC(=O)c3cc4ccncc4o3)ccc2n1` (racemic) [Example 54, rac-N-[2-(1-methylpyrrolidin-2-yl)imidazo[1,2-a]pyridin-6-yl]furo[2,3-c]pyridine-2-carboxamide], the IC50 on MLLT3 was 1500 to 20000 nM; at MLLT1 it was 150 to 1500 nM.
The like results for `CN1CCCC1c1cn2cc(NC(=O)c3ccc4c(c3)c(C3CCNC3)nn4C)ccc2n1` (racemic) [Example 56, rac-1-methyl-N-(2-(1-methylpyrrolidin-2-yl)imidazo[1,2-a]pyridin-6-yl)-3-(pyrrolidin-3-yl)-1H-indazole-5-carboxamide formate] were, in that order, 150 to 1500 nM and 150 to 1500 nM.
For `Cc1nn(C)c2cc(C(=O)Nc3cn4cc(C5CCCN5C)nc4cc3F)ccc12` (racemic) [Example 57, rac-N-[7-fluoro-2-(1-methylpyrrolidin-2-yl)imidazo[1,2-a]pyridin-6-yl]-1,3-dimethyl-1H-indazole-6-carboxamide] the same measures were 1500 to 20000 nM and 150 to 1500 nM.
For `COCCN1CCCC1c1cn2cc(NC(=O)c3ccc4c(C)nn(C)c4c3)ccc2n1` (racemic) [Example 62, rac-N-{2-[1-(2-methoxyethyl)pyrrolidin-2-yl]imidazo[1,2-a]pyridin-6-yl}-1,3-dimethyl-1H-indazole-6-carboxamide] the same measures were 1500 to 20000 nM and 1500 to 20000 nM.
For `CC1CCC(c2cn3cc(NC(=O)c4ccc5c(cnn5C)c4)ccc3n2)N1C` (racemic) [Example 63, rac-N-[2-(1,5-dimethylpyrrolidin-2-yl)imidazo[1,2-a]pyridin-6-yl]-1-methyl-1H-indazole-5-carboxamide], the half-maximal inhibitory concentration (IC50) at MLLT3 and against MLLT1 was 1500 to 20000 nM each time.
Regarding `CC1CC(c2cn3cc(NC(=O)c4ccc5c(cnn5C)c4)ccc3n2)N(C)C1` (racemic) [Example 64, rac-N-[2-(1,4-dimethylpyrrolidin-2-yl)imidazo[1,2-a]pyridin-6-yl]-1-methyl-1H-indazole-5-carboxamide], the half-maximal inhibitory concentration (IC50) on MLLT3 and at MLLT1 was 150 to 1500 nM throughout.
As for `COC1CC(c2cn3cc(NC(=O)c4ccc5c(cnn5C)c4)ccc3n2)N(C)C1` (racemic) [Example 65, rac-N-[2-(4-methoxy-1-methylpyrrolidin-2-yl)imidazo[1,2-a]pyridin-6-yl]-1-methyl-1H-indazole-5-carboxamide], the values for the IC50 at MLLT3 and against MLLT1 were 1500 to 20000 nM and 150 to 1500 nM, respectively.
Regarding `CN1CCCC1c1cn2cc(NC(=O)c3ccc4c(cnn4C)c3)ncc2n1` (racemic) [Example 68, rac-1-methyl-N-[2-(1-methylpyrrolidin-2-yl)imidazo[1,2-a]pyrazin-6-yl]-1H-indazole-5-carboxamide], the IC50 on MLLT3 and against MLLT1 was 150 to 1500 nM throughout.
Consider `Cc1nn(C)c2cc(C(=O)Nc3cn4cc(C5CC(C(C)(C)C)CN5C)nc4cn3)ccc12` (racemic) [Example 84, rac-N-[2-(4-tert-butyl-1-methylpyrrolidin-2-yl)imidazo[1,2-a]pyrazin-6-yl]-1,3-dimethylindazole-6-carboxamide], for which the concentration for half-maximal inhibition (IC50) was 150 to 1500 nM on MLLT3 and less than 150 nM on MLLT1.
For `CN1CCCC1c1cn2cc(NC(=O)c3ccc4cc(F)ccc4c3)ccc2n1` (single isomer, unassigned) [Example 5] the same measures were 150 to 1500 nM and 150 to 1500 nM.
In the case of `CN1CCCC1c1cn2cc(NC(=O)c3ccc4cc(F)ccc4c3)ccc2n1` (single isomer, unassigned) [Example 6], the IC50 on MLLT3 and against MLLT1 was 1500 to 20000 nM each time.
Take `CN1CCCC1c1cn2cc(NC(=O)c3ccc(-c4cncs4)cc3F)ccc2n1` (single isomer, unassigned) [Example 7]: the half-inhibitory concentration (IC50) at MLLT3 and on MLLT1 was 1500 to 20000 nM each time.
In the case of `CN1CCCC1c1cn2cc(NC(=O)c3ccc(-c4cncs4)cc3F)ccc2n1` (single isomer, unassigned) [Example 8], the IC50 at MLLT3 and at MLLT1 was 150 to 1500 nM each time.
For `CN1CCCC1c1cn2cc(NC(=O)c3ccc(-c4cnccn4)cc3F)ccc2n1` (single isomer, unassigned) [Example 19], the IC50 fell in the range of 1500 to 20000 nM on MLLT3 and 150 to 1500 nM at MLLT1.
The like results for `CN1CCCC1c1cn2cc(NC(=O)c3ccc(-c4ncccn4)cc3F)ccc2n1` (single isomer, unassigned) [Example 20] were, in that order, 1500 to 20000 nM and 1500 to 20000 nM.
In the case of `CN1CCCC1c1cn2cc(NC(=O)c3ccc(-c4cnn(C)c4)cc3F)ccc2n1` (single isomer, unassigned) [Example 21], the half-inhibitory concentration (IC50) on MLLT3 and against MLLT1 was 150 to 1500 nM in each case.
`Cc1ncsc1-c1ccc(C(=O)Nc2ccc3nc(C4CCCN4C)cn3c2)c(F)c1` (single isomer, unassigned) [Example 22]: the IC50 at MLLT3 is 1500 to 20000 nM; at MLLT1, 150 to 1500 nM.
For the compound `Cc1ncc(-c2ccc(F)c(C(=O)Nc3ccc4nc(C5CCCN5C)cn4c3)c2)s1` (single isomer, unassigned) [Example 23], the IC50 at MLLT3 and at MLLT1 was 150 to 1500 nM throughout.
